Experimental data: paper PMC6658769, “First-Time-in-Human Study and Prediction of Early Bactericidal Activity for GSK3036656, a Potent Leucyl-tRNA Synthetase Inhibitor for Tuberculosis Treatment” (Antimicrobial Agents and Chemotherapy, 2019)
Where two headings read alike, the source gives them in different places.

Experiments:
[1] = human, in vivo
M. tuberculosis = conditions: cited from earlier work

SMILES: NC[C@@H](O)c1c(Cl)ccc(OCCO)c1O [GSK3635633]
- % dose in pooled urine [1]: 6 % dose

SMILES: COc1nc2ccc(Br)cc2cc1[C@@H](c1ccccc1)[C@@](O)(CCN(C)C)c1cccc2ccccc12 [bedaquiline]
- reported average EBA0–14 (M. tuberculosis; loading doses of 700 mg on day 1 and 500 mg on day 2 and then 400 mg): 0.061

SMILES: C[C@]1(COc2ccc(N3CCC(Oc4ccc(OC(F)(F)F)cc4)CC3)cc2)Cn2cc([N+](=O)[O-])nc2O1 [delamanid]
- reported average EBA0–14 (M. tuberculosis; 300 mg): 0.065
